Source: ChEMBL document CHEMBL1201862, “PubChem BioAssay data set” (2004)
Where a name gives a salt, the structure may show the parent alone.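 Compound exposure: 48 hours, 5 concentrations, 96-well plates. The concentration for 50% growth inhibition is given as GI50.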 The source made the active and inactive calls. No stated cut-off is given here; in the data, active = GI50 up to about 1.1 µM and inactive = higher.

What was measured:
Assay in all cases: NCI tumour cell line growth inhibition, 48 h
[1] = system: A549
[2] = system: DMS-114
[3] = system: EKVX
[4] = system: HCT-15
[5] = system: HL-60
[6] = system: LOX IMVI
[7] = system: MCF7
[8] = system: MOLT-4
[9] = system: NCI-H522
[10] = system: OVCAR-8
[11] = system: RXF 393
[12] = system: SK-MEL-28
[13] = system: SNB-75
[14] = system: SW-620
[15] = system: UACC-257
[16] = system: ACHN
[17] = system: M14
[18] = system: Hs-578T
[19] = system: MDA-N
[20] = system: T47D

Row | SMILES | GI50 [1] | GI50 [2] | GI50 [3] | GI50 [4] [µM] | GI50 [5] | GI50 [6] | GI50 [7] | GI50 [8] | GI50 [9] | GI50 [10] | GI50 [11] | GI50 [12] | GI50 [13] | GI50 [14] | GI50 [15] | GI50 [16] | GI50 [17] | GI50 [18] | GI50 [19] | GI50 [20]
1 | CC1C(=O)OC2CC[N+]3(CC(=O)c4ccc(Br)cc4)CC=C(COC(=O)C(C)(O)C1(C)O)C23 (configuration not stated) | > 375 µM (inactive) | > 375 µM (inactive) | > 375 µM (inactive) | > 375 | 361 µM (inactive) | > 375 µM (inactive) | > 375 µM (inactive) | > 375 µM (inactive) | > 375 µM (inactive) | 37.5 µM (inactive) | > 375 µM (inactive) | > 375 µM (inactive) | > 375 µM (inactive) | > 375 µM (inactive) | > 375 µM (inactive) | – | – | – | – | –
2 | CCC(O)(c1ccc(OC)cc1)C(c1ccc(OCc2ccccc2)cc1)c1ccc(OCc2ccccc2)cc1 (configuration not stated) | > 100 µM (inactive) | > 100 µM (inactive) | > 100 µM (inactive) | > 100 | > 100 µM (inactive) | > 100 µM (inactive) | – | > 100 µM (inactive) | > 100 µM (inactive) | > 100 µM (inactive) | > 100 µM (inactive) | > 100 µM (inactive) | > 100 µM (inactive) | > 100 µM (inactive) | > 100 µM (inactive) | > 100 µM (inactive) | > 100 µM (inactive) | – | – | –
3 | O=C1c2ccccc2C(=O)c2sc(Nc3ccc(Cl)cc3)nc21 | 8.63 µM (inactive) | 1.82 µM (inactive) | 5.77 µM (inactive) | 1.8 | 0.1 µM (active) | 1.59 µM (inactive) | – | 0.762 µM (active) | 1.61 µM (inactive) | 1.75 µM (inactive) | 1.53 µM (inactive) | 1.66 µM (inactive) | 8.41 µM (inactive) | 1.09 µM (active) | 1.75 µM (inactive) | 1.57 µM (inactive) | 2.14 µM (inactive) | – | – | –
4 | CC1=Nc2c(ccc3c2C(=O)c2ccccc2C3=O)NC(c2ccncc2)C1 (configuration not stated) | 13.3 µM (inactive) | 7.74 µM (inactive) | > 10 µM (inactive) | 9.93 | 0.798 µM (active) | 34.8 µM (inactive) | – | 3.73 µM (inactive) | 6.82 µM (inactive) | 8.55 µM (inactive) | > 10 µM (inactive) | > 10 µM (inactive) | 5.96 µM (inactive) | 52.5 µM (inactive) | > 10 µM (inactive) | 6.75 µM (inactive) | > 10 µM (inactive) | – | – | –
5 | O=C(N/C(=C\c1cccc([N+](=O)[O-])c1)c1nc2c(O)nc(S)nc2[nH]1)c1ccccc1 | > 100 µM (inactive) | 88.9 µM (inactive) | > 100 µM (inactive) | > 100 | 69.3 µM (inactive) | > 100 µM (inactive) | – | 94.4 µM (inactive) | 66.8 µM (inactive) | > 100 µM (inactive) | 45.5 µM (inactive) | > 100 µM (inactive) | > 100 µM (inactive) | > 100 µM (inactive) | > 100 µM (inactive) | > 100 µM (inactive) | > 100 µM (inactive) | – | – | –
6 | COC1C=COC2(C)Oc3c(C)c(O)c4c(O)c(c(/C=N/N5CCN(N)CC5)c(O)c4c3C2=O)NC(=O)C(C)=CC=CC(C)C(O)C(C)C(O)C(C)C(OC(C)=O)C1C (configuration not stated) | > 100 µM (inactive) | 64.4 µM (inactive) | > 100 µM (inactive) | 80.7 | 35.2 µM (inactive) | 69 µM (inactive) | – | 39 µM (inactive) | 34 µM (inactive) | 88.3 µM (inactive) | 34.7 µM (inactive) | 34.4 µM (inactive) | 34.7 µM (inactive) | 48 µM (inactive) | > 100 µM (inactive) | > 100 µM (inactive) | > 100 µM (inactive) | – | – | –
7 | O=C1C(=O)N(c2cc(Cl)ccc2Cl)C(=O)C(=O)C1c1nc2ccccc2s1 | > 100 µM (inactive) | > 100 µM (inactive) | > 100 µM (inactive) | > 100 | > 100 µM (inactive) | > 100 µM (inactive) | – | – | > 100 µM (inactive) | > 100 µM (inactive) | > 100 µM (inactive) | > 100 µM (inactive) | 49.4 µM (inactive) | > 100 µM (inactive) | 98.2 µM (inactive) | > 100 µM (inactive) | > 100 µM (inactive) | – | – | –
8 | OCC(O)COc1c(Cl)cc(Cl)cc1Cl (configuration not stated) | > 100 µM (inactive) | > 100 µM (inactive) | > 100 µM (inactive) | > 100 | > 100 µM (inactive) | > 41.3 µM (inactive) | – | > 31.6 µM (inactive) | > 100 µM (inactive) | > 100 µM (inactive) | > 100 µM (inactive) | > 100 µM (inactive) | > 100 µM (inactive) | > 34 µM (inactive) | > 100 µM (inactive) | > 100 µM (inactive) | > 100 µM (inactive) | – | – | –
9 | COc1cc2c[n+](C)c3c4cc(OC)c(OC(C)C)cc4ccc3c2cc1OC | 77.6 µM (inactive) | 5.85 µM (inactive) | > 100 µM (inactive) | > 100 | 35.2 µM (inactive) | 46.5 µM (inactive) | – | 50.5 µM (inactive) | 16.9 µM (inactive) | 35.4 µM (inactive) | > 100 µM (inactive) | 57.7 µM (inactive) | 44.9 µM (inactive) | 36.3 µM (inactive) | 29.4 µM (inactive) | > 100 µM (inactive) | 84.9 µM (inactive) | – | – | –
10 | CC1(C)COC(c2ccc(C(F)(F)F)cc2C(O)c2ccc3ccccc3c2)=N1 (configuration not stated) | 99.5 µM (inactive) | > 10 µM (inactive) | > 10 µM (inactive) | > 10 | 78.3 µM (inactive) | > 10 µM (inactive) | – | > 10 µM (inactive) | > 10 µM (inactive) | > 10 µM (inactive) | 16 µM (inactive) | > 10 µM (inactive) | 15.8 µM (inactive) | > 10 µM (inactive) | > 10 µM (inactive) | > 10 µM (inactive) | > 10 µM (inactive) | – | – | –
11 | C[n+]1c2ccccc2c(CNC(CCC(N)=O)C(=O)O)c2ccccc21 (configuration not stated) | 4.38 µM (inactive) | 0.577 µM (active) | 6.75 µM (inactive) | 1.24 | 0.239 µM (active) | 1.94 µM (inactive) | 1.02 µM (active) | 0.998 µM (active) | 1.57 µM (inactive) | 3.39 µM (inactive) | 1.99 µM (inactive) | 5.96 µM (inactive) | 5.22 µM (inactive) | 0.506 µM (active) | 4.31 µM (inactive) | 1.76 µM (inactive) | 3.41 µM (inactive) | 5.68 µM (inactive) | 2.87 µM (inactive) | 0.0221 µM (active)
12 | CN(C)CCCOc1ccc(/C=C2/CCC/C(=C/c3ccc(OCCCN(C)C)cc3)C2=O)cc1 | 3.3 µM (inactive) | 1.56 µM (inactive) | 3.95 µM (inactive) | 0.995 | 1.97 µM (inactive) | 1.51 µM (inactive) | – | 0.877 µM (active) | 1.8 µM (inactive) | 3.08 µM (inactive) | 1.61 µM (inactive) | 1.79 µM (inactive) | 1.28 µM (inactive) | 1.77 µM (inactive) | 2.03 µM (inactive) | 1.99 µM (inactive) | 2.11 µM (inactive) | – | – | –
13 | COC1[C@@H](OC(C)=O)[C@@H](NC(=O)C(Cl)(Cl)Cl)C(I)[C@@H](N2C(=O)c3ccccc3C2=O)[C@H]1OC (some centres not stated) | > 100 µM (inactive) | > 100 µM (inactive) | > 100 µM (inactive) | > 100 | > 100 µM (inactive) | > 100 µM (inactive) | – | > 100 µM (inactive) | > 100 µM (inactive) | > 100 µM (inactive) | > 100 µM (inactive) | > 100 µM (inactive) | > 100 µM (inactive) | > 100 µM (inactive) | > 100 µM (inactive) | > 100 µM (inactive) | > 100 µM (inactive) | – | – | –
14 | CN(c1n[n+]2c(-c3ccccc3)csc2s1)c1n[n+]2c(-c3ccccc3)csc2s1 | > 100 µM (inactive) | 59.6 µM (inactive) | > 100 µM (inactive) | 0.144 | 47.6 µM (inactive) | > 100 µM (inactive) | – | > 100 µM (inactive) | 33.7 µM (inactive) | > 100 µM (inactive) | > 100 µM (inactive) | > 100 µM (inactive) | > 100 µM (inactive) | > 100 µM (inactive) | > 100 µM (inactive) | > 100 µM (inactive) | > 100 µM (inactive) | – | – | –
15 | COc1ccc(/C=C2\CCC(CCN(C)C)(C3=CCCC3)C2=O)cc1 (configuration not stated) | 19.2 µM (inactive) | 15.6 µM (inactive) | 14 µM (inactive) | 22.3 | 15.9 µM (inactive) | 16.6 µM (inactive) | – | 23.9 µM (inactive) | 16.1 µM (inactive) | 16.8 µM (inactive) | 7.6 µM (inactive) | 19 µM (inactive) | 19 µM (inactive) | 16.8 µM (inactive) | 16.9 µM (inactive) | 16.9 µM (inactive) | 15.1 µM (inactive) | – | – | –
16 | CC(=O)N(O)CCCCCNC(=O)CCC(=O)N(O)CCCCCNC(=O)CCC(=O)N(O)CCCCCN [DEFEROXAMINE HYDROCHLORIDE] | 14.5 µM (inactive) | 43.4 µM (inactive) | 29 µM (inactive) | 16.8 | 31 µM (inactive) | 13.5 µM (inactive) | 37.9 µM (inactive) | 11.2 µM (inactive) | 41.9 µM (inactive) | 38.4 µM (inactive) | 57.4 µM (inactive) | 37.9 µM (inactive) | > 100 µM (inactive) | 29.1 µM (inactive) | 50.4 µM (inactive) | 12.5 µM (inactive) | 19 µM (inactive) | > 100 µM (inactive) | 53.2 µM (inactive) | > 100 µM (inactive)
